{"source": "paper PMC11477294", "about": "“In Vitro Profiling of the Antiviral Peptide TAT-I24” (International Journal of Molecular Sciences, 2024)", "key": {"[1]": {"target": "dsDNA (pcDNA3.1 (+) plasmid)", "assay": "DNA binding assay (SYBR Gold fluorescence reduction)", "conditions": "reduction of fluorescence of SYBR Gold bound to pcDNA3.1 (+) plasmid (100 ng); non-linear regression; n = 8", "experimental": "DNA-binding of the peptides was analyzed using an assay based on the reduction of the fluorescence of DNA-bound SYBR^TM Gold dye in the presence of peptide. […] The selectivity index (SI), that is, the ratio between CC50 and IC50, was calculated for all peptides tested in HEK293 cells, except for C22del and C22del_cyc, for which the CC50 could not be calculated from the results of the cell viability assay (Table 1, Supplementary Figure S1).\nDNA binding was detected using an assay based on reduction of fluorescence emitted by SYBR^TM Gold (ThermoFisher, Darmstadt, Germany) bound to dsDNA in the presence of peptides using the pcDNA3.1 (+) plasmid (100 ng), as described previously."}, "[2]": {"test_system": "human PBMCs", "assay": "LPS-induced cytokine release in PBMCs (ELISA)", "assay_type": "cell-based", "conditions": "three peptide concentrations, 0.25 µg/mL LPS, 24 h, duplicate, versus control without peptides", "experimental": "Isolation of PBMCs was performed by adding 3 mL blood on a 3 mL layer of Histopaque-1077 (Sigma Aldrich, Schnelldorf, Germany) and centrifuged at 400× g for 30 min at room temperature with the lowest brake and acceleration settings. After centrifugation, plasma was aspirated and the PBMC layer was transferred to a 15 mL conical centrifugation tube. Cells were resuspended in 10 mL PBS, followed by centrifugation at 250× g for 10 min. The cell pellet was resuspended in 5 mL PBS, followed by centrifugation at 250× g for 10 min for a total of three times. Finally, the pellet was resuspended in 1 mL cell culture medium supplemented with 10% FCS. Cells were then seeded in a 48-well plate at 2.5 × 10^5 cells/125 µL per well, treated with 125 µL peptide dilutions in the absence and presence of 0.25 µg/mL lipopolysaccharide (LPS) from Escherichia coli (Sigma-Aldrich, Schnelldorf, Germany) and incubated at 37 °C for 24 h. Supernatants were then collected for subsequent analysis by ELISA.\nELISA was performed using human tumor necrosis factor-α (TNF-α) and interleukin-6 (IL-6) ELISA MAX^TM De Luxe Sets from Biolegend (San Diego, CA, USA) according to the manufacturer’s instructions. Supernatants were diluted 1:5 for TNF-α and 1:500 for IL-6."}, "[3]": {"test_system": "MCMV pM123/IE1 protein expression", "assay": "pM123/IE1 immunofluorescence in MCMV-infected NIH/3T3 cells", "assay_type": "cell-based, mouse cytomegalovirus", "conditions": "MCMV MOI 1, 6 h post-infection", "experimental": "NIH/3T3 cells were seeded at a density of 2 × 10^4 cells/250 µL per well in ibiTreat 8-well chambers (ibidi, Gräfelfing, Germany) and allowed to attach overnight at 37 °C. On the next day, cells were treated with peptides and infected with MCMV at an MOI of 1 with the aid of centrifugal enhancement, twice at 800× g for 15 min. After 6 h of incubation at 37 °C, the supernatants were removed and cells were fixed with 5% formaldehyde for 1 h at room temperature, followed by permeabilization with 0.5% Triton X-100 (Sigma Aldrich, Schnelldorf, Germany) in PBS for 10 min at room temperature. Cells were then incubated with 3% bovine serum albumin (BSA; Sigma Aldrich, Schnelldorf, Germany) in PBS for one hour. After that, anti-m123/IE-1 antibody (clone IE1.01; Center for Proteomics, Rijeka, Croatia) was added at a 1:400 dilution in PBS + 1% BSA and slides were incubated overnight at 4 °C. On the next day, wells were washed twice with PBS. […]"}, "[4]": {"test_system": "MCMV m123/ie-1 transcript", "assay": "m123/ie-1 transcript qPCR in MCMV-infected NIH/3T3 cells", "assay_type": "cell-based, mouse cytomegalovirus", "conditions": "MCMV MOI 1, two hours post-infection, duplicate treatments", "experimental": "NIH/3T3 cells were seeded at a density of 2 × 10^4 cells/250 µL per well in a 48-well plate and allowed to attach overnight at 37 °C. On the next day, cells were treated with peptides at the indicated concentrations and infected with MCMV at an MOI of 1 with the aid of centrifugal enhancement, twice at 800× g for 15 min. Cells were then returned to 37 °C for two hours before cell lysis for further processing. RNA isolation, DNase digestion, cDNA reaction and qPCR were performed, as described previously."}, "[5]": {"assay": "Oligomerization/aggregation by SDS-PAGE with Coomassie stain", "assay_type": "physicochemical", "conditions": "48 h at 37 °C in PBS or PBS with 10% FCS", "experimental": "For determination of peptide stability, 20 µg peptide was added to 50 µL PBS or PBS with 10% FCS and incubated for 48 h at 37 °C or stored at −20 °C. For non-reducing conditions, 4 µL peptide solution was mixed with 1 µL H2O and 5 µL Novex™ Tricine SDS Sample Buffer (2×) (ThermoFisher, Darmstadt, Germany). For reducing conditions, 4 µL peptide solution was mixed with 1 µL NuPAGE™ Sample Reducing Agent (10×) (Invitrogen by Thermo Fisher Scientific) and 5 µL Novex™ Tricine SDS Sample Buffer (2×). Samples were then heated to 85 °C for 10 min. A total of 10 µL was then loaded onto each well of 10–20% Novex™ Tricine, 1.0 mm, Mini Protein Gels (Invitrogen/ThermoFisher, Waltham, MA, USA) and run in 1× Novex™ Tricine SDS Running Buffer (Invitrogen/ThermoFisher, Waltham, MA, USA) for 90 min at 100 V. After electrophoresis, gels were fixed with 40% methanol and 10% acetic acid followed by staining with 0.1% Coomassie brilliant blue R250 (Sigma-Aldrich, Schnelldorf, Germany) in 40% methanol and 10% acetic acid for one hour and destaining using fixing solution."}}, "note": "pIC50: −log10 of the molar value. Where a SMILES comes first, the peptide text is derived from it."}
{"smiles": "CC(C)C[C@H](NC(=O)[C@H](CS)NC(=O)[C@H](CCC(N)=O)NC(=O)[C@@H]1CCCN1C(=O)[C@@H]1CCCN1C(=O)[C@H](CCCNC(=N)N)NC(=O)[C@H](CCCNC(=N)N)NC(=O)[C@H](CCCNC(=N)N)NC(=O)[C@H](CCC(N)=O)NC(=O)[C@H](CCCNC(=N)N)NC(=O)[C@H](CCCNC(=N)N)NC(=O)[C@H](CCCCN)NC(=O)[C@H](CCCCN)NC(=O)[C@H](CCCNC(=N)N)NC(=O)CN)C(=O)N[C@@H](C)C(=O)N[C@@H](Cc1ccccc1)C(=O)N[C@@H](Cc1ccc(O)cc1)C(=O)N[C@@H](C)C(=O)N[C@@H](CS)C(=O)N[C@@H](Cc1ccccc1)C(=O)N[C@@H](CS)C(=O)O", "note": "[TAT-I24] (H-GRKKRRQRRRPPQCLAFYACFC-OH)", "values": [{"measurement": "pIC50", "setting": "[1]", "value": 6.00}, {"measurement": "LPS-induced IL-6 release", "setting": "[2]", "value": "No significant differences"}, {"measurement": "LPS-induced TNF-α release", "setting": "[2]", "value": "No significant differences"}, {"measurement": "number of pM123/IE1-positive cells", "setting": "[3]; 1 µM peptide", "value": "clearly reduced"}, {"measurement": "number of pM123/IE1-positive cells", "setting": "[3]; 10 µM peptide", "value": "clearly reduced"}, {"measurement": "m123/ie-1 transcript levels relative to infected cells without peptides", "setting": "[4]; 1 µM peptide", "value": "significantly reduced"}, {"measurement": "m123/ie-1 transcript levels relative to infected cells without peptides", "setting": "[4]; 10 µM peptide", "value": "significantly reduced"}, {"measurement": "oligomer formation, SDS-PAGE under reducing conditions", "setting": "[5]; 10–20% Tricine gel, Coomassie Brilliant Blue stain", "value": "additional weak higher molecular weight smear around 45 kDa"}, {"measurement": "oligomer formation, SDS-PAGE under non-reducing conditions", "setting": "[5]; SDS loading buffer without reducing agent, Coomassie stain", "value": "only faint bands of monomers"}]}
